Experimental data taken from US20170334959A1 (priority 2015, published 2017).
“Also recorded” adds a separate entry of the source. No end group written: not given here.

Tests used:
human Nav1.6 = human Nav1.6 (Homo sapiens, UniProt Q9UQD0); format: cell-based
human Nav1.7 = human Nav1.7 (Homo sapiens, UniProt Q15858, W1161R); format: cell-based; details: read-out: Nav1.7 IC50
[1] = system: CFA-induced thermal hyperalgesia; parameters: species or system mice; details: mouse, in vivo
[2] = system: CFA-induced tactile allodynia; parameters: species or system mice; details: mouse, in vivo
[3] = system: thermal withdrawal latency; parameters: species or system mice; details: mouse, in vivo
[4] = system: carrageenan-induced thermal hyperalgesia; parameters: species or system mice; details: mouse, in vivo
[5] = system: acute thermal pain (tail withdrawal latency); details: in vivo
[6] = system: acute thermal pain (hot plate latency); details: in vivo
[7] = system: formalin-induced flinching (injury-induced pain); details: rat, in vivo
[8] = system: acute and inflammatory pain; details: in vivo; cited from earlier work
isolated nerves = details: cited from earlier work

Sequence of human Nav1.6 (Q9UQD0 whole entry): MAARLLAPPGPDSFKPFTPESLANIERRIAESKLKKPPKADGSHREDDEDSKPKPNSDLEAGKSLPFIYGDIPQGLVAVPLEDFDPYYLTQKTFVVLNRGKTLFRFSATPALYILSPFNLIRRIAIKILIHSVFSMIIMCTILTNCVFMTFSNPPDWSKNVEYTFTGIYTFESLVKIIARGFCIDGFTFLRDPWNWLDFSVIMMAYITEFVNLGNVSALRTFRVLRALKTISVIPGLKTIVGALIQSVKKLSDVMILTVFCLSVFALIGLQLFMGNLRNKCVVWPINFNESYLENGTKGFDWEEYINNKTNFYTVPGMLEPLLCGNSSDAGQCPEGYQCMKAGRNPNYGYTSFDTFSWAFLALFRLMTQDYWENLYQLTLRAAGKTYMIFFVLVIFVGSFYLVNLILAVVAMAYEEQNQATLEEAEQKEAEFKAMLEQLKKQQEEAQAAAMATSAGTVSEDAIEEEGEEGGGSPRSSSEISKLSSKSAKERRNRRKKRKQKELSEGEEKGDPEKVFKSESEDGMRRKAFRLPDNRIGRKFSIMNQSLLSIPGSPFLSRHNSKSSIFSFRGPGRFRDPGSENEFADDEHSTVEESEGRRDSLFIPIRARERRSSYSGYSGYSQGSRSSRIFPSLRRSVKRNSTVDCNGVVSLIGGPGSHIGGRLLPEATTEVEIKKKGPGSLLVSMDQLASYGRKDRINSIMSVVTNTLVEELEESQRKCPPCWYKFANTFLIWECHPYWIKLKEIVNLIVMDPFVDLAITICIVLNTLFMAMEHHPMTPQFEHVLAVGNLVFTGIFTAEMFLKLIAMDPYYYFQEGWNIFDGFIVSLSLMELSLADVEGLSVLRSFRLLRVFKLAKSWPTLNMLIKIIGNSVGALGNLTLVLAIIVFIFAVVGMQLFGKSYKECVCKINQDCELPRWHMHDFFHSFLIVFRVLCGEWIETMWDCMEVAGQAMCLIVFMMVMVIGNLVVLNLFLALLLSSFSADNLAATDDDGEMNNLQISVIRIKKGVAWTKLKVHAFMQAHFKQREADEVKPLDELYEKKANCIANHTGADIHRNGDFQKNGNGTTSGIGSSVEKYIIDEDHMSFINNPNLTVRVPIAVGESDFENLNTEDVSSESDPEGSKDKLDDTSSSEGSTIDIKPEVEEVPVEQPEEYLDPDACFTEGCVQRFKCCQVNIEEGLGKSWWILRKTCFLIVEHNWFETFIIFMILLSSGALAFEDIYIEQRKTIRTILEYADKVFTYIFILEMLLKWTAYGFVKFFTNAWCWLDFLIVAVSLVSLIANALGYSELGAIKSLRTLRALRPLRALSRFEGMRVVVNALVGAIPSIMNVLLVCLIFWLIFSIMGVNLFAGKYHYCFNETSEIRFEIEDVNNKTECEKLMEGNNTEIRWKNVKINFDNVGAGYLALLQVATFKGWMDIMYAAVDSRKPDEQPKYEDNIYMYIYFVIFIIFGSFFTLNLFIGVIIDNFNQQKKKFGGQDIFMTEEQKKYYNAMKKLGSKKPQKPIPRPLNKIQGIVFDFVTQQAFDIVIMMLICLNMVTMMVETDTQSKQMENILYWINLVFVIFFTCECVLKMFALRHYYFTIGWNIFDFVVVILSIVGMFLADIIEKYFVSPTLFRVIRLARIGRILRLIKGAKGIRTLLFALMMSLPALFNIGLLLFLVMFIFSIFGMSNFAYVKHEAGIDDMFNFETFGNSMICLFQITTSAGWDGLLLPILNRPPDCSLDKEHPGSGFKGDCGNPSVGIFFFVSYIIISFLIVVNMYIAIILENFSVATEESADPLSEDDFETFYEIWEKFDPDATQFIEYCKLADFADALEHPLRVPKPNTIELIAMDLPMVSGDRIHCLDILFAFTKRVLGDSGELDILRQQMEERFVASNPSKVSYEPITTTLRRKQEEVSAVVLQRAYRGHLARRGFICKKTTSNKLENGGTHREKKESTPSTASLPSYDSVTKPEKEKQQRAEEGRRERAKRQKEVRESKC

Substance	selectivity for Nav1.7 compared to recombinant Protoxin-II (human Nav1.6)	IC50 (human Nav1.7) [nM]	also measured
Ac-QCQKWMQTCDAERKCCEGFSCTLWCKKKLW-NH2 [(-GP) N-Ac-NV1D2974-NH2]	improved selectivity		
Ac-QCQKWMQTCDRERKCCEGFVCTLWCRKKLW-NH2 [(-GP) N-Ac-NV1D3034-NH2]	improved selectivity		
GPACQKWMQTCDANRKCCEGFSCRLWCKKKLW-OH (cysteine pairing not given here) [NV1D3587]	improved selectivity		
GPACQKWMQTCDRNRKCCEGFVCTLWCRKKLW-OH (cysteine pairing not given here) [NV1D3541]	improved selectivity		
GPCCNCSSKWCRDHSRCCGRGSAPAPAPAPAPAPAPAPAPAPGSQCQKWMQTCDAERKCCEGFVCRLWCKKKLW [NV1D3260]		57.6	
GPCCNCSSKWCRDHSRCCGRGSAPAPAPAPAPAPAPAPAPAPGSQCQKWMQTCDRERKCCEGFVCTLWCRKKLW [NV1D3793]		64.6	
GPCCNCSSKWCRDHSRCCGRGSAPAPAPAPAPGSQCQKWMQTCDAERKCCEGFVCRLWCKKKLW [NV1D3256]		55.7	
GPCCNCSSKWCRDHSRCCGRGSGGGGSAPAPAPAPAPAPAPAPAPAPGGGGSGSQCQKWMQTCDRERKCCEGFVCTLWCRKKLW [NV1D3830]		88.6	
GPCCNCSSKWCRDHSRCCGSAPAPAPAPAPAPAPAPAPAPGSQCQKWMQTCDAERKCCEGFVCRLWCKKKLW [NV1D3262]		89.2	
GPCCNCSSKWCRDHSRCCGSAPAPAPAPAPAPAPAPAPAPGSQCQKWMQTCDRERKCCEGFVCTLWCRKKLW [NV1D3795]		100	
GPCCNCSSKWCRDHSRCCGSAPAPAPAPAPGSQCQKWMQTCDRERKCCEGFVCTLWCRKKLW [NV1D3796]		110	
GPCRTIGPSVCAPAPAPAPAPAPAPAPAPAPQCQKWMQTCDRERKCCEGFVCTLWCRKKLW [NV1D3832]		88.4	
GPGWCGDPGATCGKLRLYCCSGFCDAYTKTCKDKSSAGGGGSAPAPAPAPAPAPAPAPAPAPAPAPAPAPAPGGGGSQCQKWMQTCDRERKCCEGFVCTLWCRKKLW [NV1D3824]		110	
GPGWCGDPGATCGKLRLYCCSGFCDSYTKTCKDKSSAGGGGSAPAPAPAPAPAPAPAPAPAPAPAPAPAPAPGGGGSQCQKWMQTCDRERKCCEGFVCTLWCRKKLW [NV1D3822]		74.2	
GPQCQDWMQTCDRERDCCEGFVCTLWCRKKLW-OH (cysteine pairing not given here) [NV1D3379]		31.6	
GPQCQKWMQSCDRERKCCEGFVCTLWCRKKLW-OH (cysteine pairing not given here) [NV1D3359]	improved selectivity		
GPQCQKWMQTCDAERKCCEGFSCTLWCKKKLW-NH2 [NV1D2974-NH2]	improved selectivity		
GPQCQKWMQTCDAERKCCEGFSCTLWCKKKLW-OH (cysteine pairing not given here) [NV1D2974]	improved selectivity		
GPQCQKWMQTCDAERKCCEGFVCRLWCKKKLW-NH2 [NV1D2775-NH2]	improved selectivity		
GPQCQKWMQTCDAERKCCEGFVCRLWCKKKLW-OH (cysteine pairing not given here) [NV1D2775]	improved selectivity		efficacy in the CFA model / reversal of CFA-induced thermal hyperalgesia [1]: strong efficacy; thermal latencies in the CFA model [1]: close to the cut-off; time at which anti-hyperalgesic effect was first seen post-pump implantation [1]: ≤ 4 h; time by which thermal latency returned to the control level post pump implantation [1]: ≤ 48 h; time of maximum effect, thermal test [1]: 8 h; reversal of CFA-induced tactile allodynia [2]: reversed; time by which tactile threshold returned to the control level post pump implantation [2]: ≤ 48 h; time of maximum effect, tactile test [2]: 8 h; efficacy in the hot plate test [3]: strong, dose-dependent efficacy; also recorded: significant analgesia; hotplate latencies at 50 and 55° C. [3]: near cut-off; hotplate thermal latency compared to the PBS control [3]: modest yet significant increase; analgesia in the carrageenan study (thermal withdrawal latency) [4]: significant analgesia; protection from carrageenan-induced thermal hyperalgesia [4]: fully protected; efficacy in the tail flick test [5]: significant efficacy; efficacy in the hot plate test [6]: significant efficacy; efficacy in the formalin test (flinches) [7]: significant efficacy
GPQCQKWMQTCDAERKCCEGFVCRLWCKKKLWGSAPAPAPAPAPAPAPAPAPAPGSCCNCSSKWCRDHSRCCGR [NV1D3259]		54.9	
GPQCQKWMQTCDARRKCCEGFVCRLWCKKKLW-OH (cysteine pairing not given here) [NV1D3006]	improved selectivity		
GPQCQKWMQTCDRERKCCEGFVCTLWCRKKLW-NH2 [NV1D3034-NH2]	improved selectivity		

Substance	selectivity for Nav1.7 compared to recombinant Protoxin-II (human Nav1.6)	IC50 (human Nav1.7) [nM]	also measured
GPQCQKWMQTCDRERKCCEGFVCTLWCRKKLW-NH-butyl [NV1D3034-NH-butyl]	improved selectivity		
GPQCQKWMQTCDRERKCCEGFVCTLWCRKKLW-NH-methyl [NV1D3034-NH-methyl]	improved selectivity		efficacy in the CFA model / reversal of CFA-induced thermal hyperalgesia [1]: readily reversed; Thermal MPE % ([1]; sc): 49 ± 17%
GPQCQKWMQTCDRERKCCEGFVCTLWCRKKLW-OH (cysteine pairing not given here) [NV1D3034]			reversal of CFA-induced thermal hyperalgesia ([1]; sc): completely reversed; efficacy in the tail flick test [5]: significant efficacy; efficacy in the hot plate test [6]: significant efficacy; efficacy in the formalin test (flinches) [7]: significant efficacy
GPQCQKWMQTCDRERKCCEGFVCTLWCRKKLWGGGGSAPAPAPAPAPAPAPAPAPAPAPAPAPAPAPGGGGSGWCGDPGATCGKLRLYCCSGFCDAYTKTCKDKSSA [NV1D3825]		194	
GPQCQKWMQTCDRERKCCEGFVCTLWCRKKLWGSAPAPAPAPAPAPAPAPAPAPGSCCNCSSKWCRDHSRCC [NV1D3797]		91.1	
GPQCQKWMQTCDRERKCCEGFVCTLWCRKKLWGSAPAPAPAPAPAPAPAPAPAPGSCCNCSSKWCRDHSRCCGR [NV1D3798]		94.5	
GPQCQKWMQTCDRERKCCEGFVCTLWCRKKLWGSAPAPAPAPAPGSCCNCSSKWCRDHSRCC [NV1D3799]		50.6	
GPQCQKWMQTCDRERKCCEGFVCTLWCRKKLWGSAPAPAPAPAPGSCCNCSSKWCRDHSRCCGR [NV1D3800]		60.9	
GPQCQKWMQTCDRERKCCEGFVCTLWCRKKLWGSGGGGSAPAPAPAPAPAPAPAPAPAPGGGGSGSCCNCSSKWCRDHSRCC [NV1D3829]		122	
GPQCQKWMQTCDRERKCCEGFVCTLWCRKKLWGSGGGGSAPAPAPAPAPAPAPAPAPAPGGGGSGSCCNCSSKWCRDHSRCCGR [NV1D3828]		87.5	
GPQCQKWMQTCDRERKCCQGFVCTLWCRKKLW-OH (cysteine pairing not given here) [NV1D3388]	improved selectivity		
GPQCQKWMQTCDRNRKCCEGFVCTLWCRKKLW-OH (cysteine pairing not given here) [NV1D3044]	improved selectivity		
GPQCQKWMQTCDRTRKCCEGFVCTLWCRKKLW-NH2 [NV1D3368-NH2]	improved selectivity		efficacy in the CFA model / reversal of CFA-induced thermal hyperalgesia [1]: readily reversed
GPQCQKWMQTCDRTRKCCEGFVCTLWCRKKLW-OH (cysteine pairing not given here) [NV1D3368]	improved selectivity		reversal of CFA-induced thermal hyperalgesia ([1]; sc): fully reversed
GPRCQKWMQTCDAERKCCEGFVCRLWCKKKLW-OH (cysteine pairing not given here) [NV1D2772]	improved selectivity		
GPSCQKWMQTCDAERKCCEGFVCRLWCKKKLW-OH (cysteine pairing not given here) [NV1D2773]	improved selectivity		
GPSHSNTQTLAKAPEHTGAPAPAPAPAPAPAPAPAPAPQCQKWMQTCDRERKCCEGFVCTLWCRKKLW [NV1D3774]		88.6	
GPYCQKWMQTCDANRKCCEGFSCRLWCKKKLW-NH2 [NV1D3586-NH2]	improved selectivity		
GPYCQKWMQTCDANRKCCEGFSCRLWCKKKLW-OH (cysteine pairing not given here) [NV1D3586]	improved selectivity		
GPYCQKWMQTCDSERKCCEGMVCRLWCKKKLL-OH (cysteine pairing not given here) [compound 63955918]			efficacy in the tail flick test [5]: potent and prolonged analgesia; efficacy in the hot plate test [6]: potent and prolonged analgesia; efficacy in the formalin test (flinches) [7]: less flinches
GPYCQKWMWTCDSERKCCEGMVCRLWCKKKLW-COOH [NV1D12, reference compound]			selectivity, ratio IC50(Nav1.6)/IC50(Nav1.7) in QPatch (human Nav1.6): about 28 fold
YCQKWMWTCDSERKCCEGMVCRLWCKKKLW-COOH [wild-type Protoxin-II]			efficacy in rodent models of acute and inflammatory pain [8]: non-efficacious; inhibition of action potential firing in isolated nerves (isolated nerves): inability
